According to paper PMC12733323, “Novel Mono-Substituted 4H-1,2,6-Thiadiazines with Antioxidant and Anti-Lipoxygenase Activities” (International Journal of Molecular Sciences, 2025):
Read-outs that look alike come from different tables or passages of the source.

Legend:
[1] = biological target: T1, soybean lipoxygenase (Glycine max, UniProt P08170); assay: Inhibition of soybean lipoxygenase; type: biochemical; settings: for inhibition at 100 µM: read-out: LOX % Inhibition 100 μM
T1 sequence (P08170 1-839): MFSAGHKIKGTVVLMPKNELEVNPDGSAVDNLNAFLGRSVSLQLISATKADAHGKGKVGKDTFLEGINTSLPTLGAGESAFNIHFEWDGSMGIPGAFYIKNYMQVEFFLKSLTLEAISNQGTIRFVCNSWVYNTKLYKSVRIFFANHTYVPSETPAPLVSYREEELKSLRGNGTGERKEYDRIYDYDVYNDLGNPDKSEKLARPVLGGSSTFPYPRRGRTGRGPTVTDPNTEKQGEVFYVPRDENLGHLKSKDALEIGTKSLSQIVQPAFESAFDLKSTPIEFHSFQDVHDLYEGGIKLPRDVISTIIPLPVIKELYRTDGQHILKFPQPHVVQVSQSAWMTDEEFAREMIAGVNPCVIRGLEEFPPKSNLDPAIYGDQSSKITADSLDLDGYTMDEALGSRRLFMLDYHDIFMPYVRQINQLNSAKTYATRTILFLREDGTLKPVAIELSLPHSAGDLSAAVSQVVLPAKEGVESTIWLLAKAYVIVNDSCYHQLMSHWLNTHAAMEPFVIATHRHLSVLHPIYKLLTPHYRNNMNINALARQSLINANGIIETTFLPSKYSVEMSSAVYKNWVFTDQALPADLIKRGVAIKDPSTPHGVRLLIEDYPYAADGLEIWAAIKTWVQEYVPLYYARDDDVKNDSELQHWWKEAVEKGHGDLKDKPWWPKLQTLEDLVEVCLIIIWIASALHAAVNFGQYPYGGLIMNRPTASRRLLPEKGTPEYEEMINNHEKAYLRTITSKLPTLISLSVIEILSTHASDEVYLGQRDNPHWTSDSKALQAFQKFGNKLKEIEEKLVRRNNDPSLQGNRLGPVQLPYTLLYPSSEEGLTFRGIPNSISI
Experimental: Lipoxygenase (LOX) plays a key role in the formation of leukotrienes, which are important inflammatory mediators. Leukotrienes are considered key therapeutic targets in inflammatory diseases due to their role. Soybean lipoxygenase (LOX), a plant-based enzyme, has long been used as a model system to study the structural and functional characteristics of the lipoxygenase family due to its significant homology with human 5-LOX [39].
Sodium linoleate (0.1 mM), 0.2 mL of soybean lipoxygenase solution (1/9 × 10^−4 w/v in saline), and 10 μL of the test compound stock solution (10 mM in DMSO) were incubated at room temperature. The formation of 13-hydroperoxy-linoleic acid was monitored by measuring absorbance at 234 nm. […] A couple of concentrations of the test compounds were used to calculate the IC50 values.

[2] = Interaction with the stable free radical DPPH (reducing activity)
Experimental: The synthesized derivatives were tested for their interaction with the stable free radical 2,2-diphenyl-1-picrylhydrazyl (DPPH) at a concentration of 100 μM after 20 and 60 min (Table 4). DPPH is widely used as a standard method for evaluating antioxidant activity. […] However, lipophilic compounds typically dissolve efficiently in organic solvents when they react with DPPH. The relationship between antioxidant activity and lipophilicity was reported in previous studies.
In vitro assays were carried out to evaluate the reducing activity of the novel derivatives against the DPPH stable radical. Free radical scavenging activity was determined by measuring absorbance at 517 nm after 20 and 60 min at room temperature. NDGA served as the reference compound. (Table 4).

[3] = Inhibition of AAPH-induced linoleic acid peroxidation
Source text: In the lipid peroxidation assay, sodium linoleate was used as the substrate, while 2,2′-azobis(2-methylpropionamidine) dihydrochloride (AAPH) was the peroxyl radical initiator. The formation of 13-hydroperoxy-linoleic acid from linoleic acid was observed by UV-Vis absorption measurements at 234 nm. Trolox was used as a reference compound.
AAPH was used as an alkyl peroxyl radical inducer. In this experiment, the compounds’ ability to prevent linoleic acid oxidation by alkyl peroxyl radicals through absorbance changes at 234nm was evaluated, corresponding to the production of 13-hydroperoxy-linoleic acid. Trolox was used as the reference compound.

Compound | IC50 [1] [µM] | RA%, DPPH, 20 min (100 µM) [2] | RA%, DPPH, 60 min (100 µM) [2] | %AAPH (100 µM) [3] | inhibition at 100 µM [1] [%] | IC50 ([1]; read-out: LOX IC50) [µM] | RA%, DPPH, 60 min (100 µM) ([2]; listed as ΝDGA) [%]
O=c1c(Cl)nsnc1N1CCN(c2ccccc2)CC1 [Compound 9a, 3-Chloro-5-(4-phenylpiperazin-1-yl)-4H-1,2,6-thiadiazin-4-one] | 7.5 | 7% | 6% | 15% |  |  | 
O=c1c(Cl)nsnc1N1CCN(C(c2ccccc2)c2ccccc2)CC1 [Compound 9b, 3-(4-Benzhydrylpiperazin-1-yl)-5-chloro-4H-1,2,6-thiadiazin-4-one] | 55 | 2% | 2% | 20% |  |  | 
N#CC(C#N)=C1C(Cl)=NSN=C1N1CCN(c2ccccc2)CC1 [Compound 10a, 2-[3-Chloro-5-(4-phenylpiperazin-1-yl)-4H-1,2,6-thiadiazin-4-ylidene]malononitrile] |  | 16% | 15% | 27% | 46 |  | 
N#CC(C#N)=C1C(Cl)=NSN=C1N1CCN(C(c2ccccc2)c2ccccc2)CC1 [Compound 10b, 2-[3-(4-Benzhydrylpiperazin-1-yl)-5-chloro-4H-1,2,6-thiadiazin-4-ylidene]malononitrile] |  | no | no | No |  | 67.5 | 
Cc1ccnc(Sc2nsnc(Cl)c2=O)n1 [Compound 11a, 3-Chloro-5-[(4-methylpyrimidin-2-yl)thio]-4H-1,2,6-thiadiazin-4-one] |  | 2% | no | No | 31 |  | 
Cn1nnnc1Sc1nsnc(Cl)c1=O [Compound 11b, 3-Chloro-5-[(1-methyl-1H-tetrazol-5-yl)thio]-4H-1,2,6-thiadiazin-4-one] |  | 3% | 3% | 45% | 44 |  | 
O=c1c(Cl)nsnc1Sc1nc2ccccc2o1 [Compound 11c, 3-(Benzo[d]oxazol-2-ylthio)-5-chloro-4H-1,2,6-thiadiazin-4-one] | 77.5 | 21% | 22% | 5% |  |  | 
CC(=O)Nc1ccc(Sc2nsnc(Cl)c2=O)cc1 [Compound 11d, N-{4-[(5-Chloro-4-oxo-4H-1,2,6-thiadiazin-3-yl)thio]phenyl}acetamide] | 85 | 1% | 2% | 43% |  |  | 
O=c1c(Cl)nsnc1Sc1nnnn1-c1ccccc1 [Compound 11e, 3-Chloro-5-[(1-phenyl-1H-tetrazol-5-yl)thio]-4H-1,2,6-thiadiazin-4-one] |  | 15% | 17% | No | 50 |  | 
Cn1cnnc1Sc1nsnc(Cl)c1=O [Compound 11f, 3-Chloro-5-[(4-methyl-4H-1,2,4-triazol-3-yl)thio]-4H-1,2,6-thiadiazin-4-one] | 52.5 | 10% | 12% | 7% |  |  | 
O=c1c(Cl)nsnc1Sc1nccs1 [Compound 11g, 3-Chloro-5-(thiazol-2-ylthio)-4H-1,2,6-thiadiazin-4-one] |  | 10% | 7% | No | 40 |  | 
O=c1c(Cl)nsnc1Sc1nc2ccccc2s1 [Compound 11h, 3-(benzo[d]thiazol-2-ylthio)-5-chloro-4H-1,2,6-thiadiazin-4-one] |  | 8% | 1% | No | 33 |  | 
CCOc1ccc2nc(Sc3nsnc(Cl)c3=O)sc2c1 [Compound 11i, 3-Chloro-5-[(6-ethoxybenzo[d]thiazol-2-yl)thio]-4H-1,2,6-thiadiazin-4-one] | 67.5 | 3% | no | No |  |  | 
Cc1ccnc(SC2=NSN=C(Cl)C2=C(C#N)C#N)n1 [Compound 12a, 2-{3-Chloro-5-[(4-methylpyrimidin-2-yl)thio]-4H-1,2,6-thiadiazin-4-ylidene}malononitrile] |  | 82% | 90% | 18% | 41 |  | 
Cn1nnnc1SC1=NSN=C(Cl)C1=C(C#N)C#N [Compound 12b, 2-{3-Chloro-5-[(1-methyl-1H-tetrazol-5-yl)thio]-4H-1,2,6-thiadiazin-4-ylidene}malononitrile] | 75 | 27% | 36% | No |  |  | 
N#CC(C#N)=C1C(Cl)=NSN=C1Sc1nc2ccccc2o1 [Compound 12c, 2-[3-(Benzo[d]oxazol-2-ylthio)-5-chloro-4H-1,2,6-thiadiazin-4-ylidene]malononitrile] |  | 89% | 92% | 70% | 27 |  | 
CC(Cc1ccc(O)c(O)c1)C(C)Cc1ccc(O)c(O)c1 (centres unmarked) [NDGA, Nordihydroguaiaretic acid, reference compound] |  | 87% | 87% |  |  |  | 93
Cc1c(C)c2c(c(C)c1O)CCC(C)(C(=O)O)O2 (centres unmarked) [Trolox, reference compound] |  |  |  | 93% |  |  | 
